Here are results for seven compounds from patent US12187709B2 (Genentech, Inc., priority 2021, dated 2025).

One assay has as its target Cbl-b (Homo sapiens (Human), UniProt Q13191). The assay is described as follows: Cbl-b LCK Ub TR-FRET assay (Cbl-b Lck HTRF). Format: biochemical. Particulars: for IC50: Cbl-b LCK Ub TR-FRET; for fold-selectivity (Cbl-b over C-cbl): ratio C-cbl Lck HTRF IC50 / Cbl-b Lck HTRF IC50. An outline of the steps: (§1)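 Signal is read once the detection mix has stood 20 min at ambient temperature. Curves are anchored by DMSO as maximum and by omission of LCK as minimum.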
(Time-resolved FRET reads energy transfer from a long-lived donor to a nearby acceptor.)

The target in a further assay is c-Cbl (Homo sapiens (Human), UniProt P22681). The assay is described as follows: C-Cbl LCK Ub TR-FRET assay (C-cbl Lck HTRF). In kind it is biochemical. Summed up: as §1
Sequence of c-Cbl (P22681 47-435): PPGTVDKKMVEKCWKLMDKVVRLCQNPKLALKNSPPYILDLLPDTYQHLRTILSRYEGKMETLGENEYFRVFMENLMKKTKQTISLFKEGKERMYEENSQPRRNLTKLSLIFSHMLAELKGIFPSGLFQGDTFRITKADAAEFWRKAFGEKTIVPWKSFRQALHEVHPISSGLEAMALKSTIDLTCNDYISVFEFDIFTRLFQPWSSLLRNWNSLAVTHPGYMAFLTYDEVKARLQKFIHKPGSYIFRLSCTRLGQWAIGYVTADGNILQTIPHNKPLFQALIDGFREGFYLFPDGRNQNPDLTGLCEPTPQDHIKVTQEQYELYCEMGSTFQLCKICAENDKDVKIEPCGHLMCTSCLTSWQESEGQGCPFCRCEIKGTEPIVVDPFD
Assay [1] addresses Human Cbl-b (residues 40-426) (Homo sapiens (Human), UniProt Q13191). The assay is described as follows: Cbl-b SPR assay. Particulars: for Fold of selectivity: C-cbl SPR Kd vs Cbl-b SPR Kd; for Kd: SPR, 20° C. Format: binding. Summed up:
(§2)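 First, protein is captured to 1300-1500 RU. Then compound runs in single cycle kinetics, a blank plus 5 two-fold concentrations up to 500 nM (120 s contact, 50 μl/min, 450 s dissociation). Chaser injections (20 s, 30 μl/min) track occupancy, giving kd, which is fixed when fitting the titration.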

The target in a further assay is c-Cbl (residues 47-435) (Homo sapiens (Human), UniProt P22681). The experiment in a line: c-Cbl SPR assay. Format: binding. Particulars: 20° C. An outline of the steps:
as §2

SMILES strings stand for the structures.

Sequence of Human Cbl-b (residues 40-426) (Q13191 40-426): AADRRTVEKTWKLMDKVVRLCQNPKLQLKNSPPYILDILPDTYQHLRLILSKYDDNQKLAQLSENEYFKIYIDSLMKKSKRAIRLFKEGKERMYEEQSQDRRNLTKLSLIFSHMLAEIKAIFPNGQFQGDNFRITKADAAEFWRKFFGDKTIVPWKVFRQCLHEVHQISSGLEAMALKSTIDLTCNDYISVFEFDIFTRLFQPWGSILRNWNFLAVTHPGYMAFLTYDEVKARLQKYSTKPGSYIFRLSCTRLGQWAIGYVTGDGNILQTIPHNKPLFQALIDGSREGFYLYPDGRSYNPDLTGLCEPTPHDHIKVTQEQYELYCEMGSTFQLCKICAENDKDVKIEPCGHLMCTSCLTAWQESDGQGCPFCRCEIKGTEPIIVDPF
Sequence of Cbl-b (Q13191 40-426): as above
Sequence of c-Cbl (residues 47-435) (P22681 47-435): as the sequence (P22681 47-435) above

Turning to `CO[C@H]1C[C@@](c2cccc(N3Cc4c(cccc4C(F)(F)F)C3=O)c2)(c2nncn2C)C1` [Compound 190, 2-(3-((1s,3s)-3-methoxy-1-(4-methyl-4H-1,2,4-triazol-3-yl)cyclobutyl)phenyl)-4-(trifluoromethyl)isoindolin-1-one], at Cbl-b, the half-inhibitory concentration (IC50) (in general, the concentration needed to halve the response being measured) was determined as 7.8 µM and the “fold-selectivity (Cbl-b over C-cbl)” value was found to be 2.0x. Moreover, on c-Cbl, it took 16 µM to reach half-maximal inhibition (IC50). Further, in assay [1], the Fold of selectivity is 2.2× and the dissociation constant (Kd) (commonly the free concentration of one partner at which half of the binding sites on the other are occupied at equilibrium, for simple one-to-one binding) was found to be 5.2 µM. The affinity at c-Cbl (residues 47-435), expressed as Kd, was 11 µM.

With `C[C@H](CC#N)Nc1cc(C2(c3nncn3C)CC3(COC3)C2)cc(N2Cc3c(cc(CNC4(C)CCC4)cc3C(F)(F)F)C2=O)n1` [Compound 192, (R)-3-((4-(6-(4-methyl-4H-1,2,4-triazol-3-yl)-2-oxaspiro[3.3]heptan-6-yl)-6-(6-(((1-methylcyclobutyl)amino)methyl)-1-oxo-4-(trifluoromethyl)isonidolin-2-yl)pyridin-2-yl)amino)butanenitrile], on Cbl-b, the IC50 came out at 0.013 µM and the “fold-selectivity (Cbl-b over C-cbl)” value worked out at 0.7x. The compound further registered an IC50 on c-Cbl of 0.0092 µM. In assay [1], this compound displayed a Fold of selectivity of 5.7× and a Kd of 0.0003 µM. Further, at c-Cbl (residues 47-435), the Kd is 0.0017 µM.

Turning to `Cn1cnnc1C1(c2cc(OC3CCCC3)nc(N3Cc4c(cc(CNC5(C)CCC5)cc4C(F)(F)F)C3=O)c2)CC2(COC2)C1` [Compound 193], on Cbl-b, the IC50 was found to be 0.036 µM and the “fold-selectivity (Cbl-b over C-cbl)” value was determined as 11x. The compound further showed an IC50 against c-Cbl of 0.42 µM. In assay [1], the Fold of selectivity is 27× and the dissociation constant (Kd) was 0.012 µM. At c-Cbl (residues 47-435), this compound returned a Kd of 0.32 µM.

In the case of `C[C@@H](CC#N)Nc1cc(C2(c3nncn3C)CC3(COC3)C2)cc(N2Cc3c(cc(CNC4(C)CCC4)cc3C(F)(F)F)C2=O)n1` [Compound 194, (S)-3-((4-(6-(4-methyl-4H-1,2,4-triazol-3-yl)-2-oxaspiro[3.3]heptan-6-yl)-6-(6-(((1-methylcyclobutyl)amino)methyl)-1-oxo-4-(trifluoromethyl)isoindolin-2-yl)pyridin-2-yl)amino)butanenitrile], the IC50 at Cbl-b was determined as 0.013 µM; against c-Cbl it was 0.034 µM. Moreover, on Cbl-b, the “fold-selectivity (Cbl-b over C-cbl)” value is listed as 2.5x. The compound further had a Fold of selectivity in assay [1] of 8.3×. Moreover, the Kd in assay [1] is 0.0019 µM; at c-Cbl (residues 47-435) it was 0.016 µM.

With `Cn1cnnc1[C@]1(c2cc(OC3CCCC3)cc(N3Cc4c(cc(CNC5(C)CCC5)cc4C(F)(F)F)C3=O)c2)C[C@@H](C)C1` [Compound 195, 2-(3-(cyclopentyloxy)-5-((1r,3r)-3-methyl-1-(4-methyl-4H-1,2,4-triazol-3-yl)cyclobutyl)phenyl)-6-(((1-methylcyclobutyl)amino)methyl)-4-(trifluoromethyl)isoindolin-1-one], on Cbl-b, half-maximal inhibition (IC50) was put at 0.036 µM and the “fold-selectivity (Cbl-b over C-cbl)” value was found to be 2.4x. At c-Cbl, the IC50 worked out at 0.084 µM. In assay [1], this compound came in with a Fold of selectivity of 7.6× and an equilibrium dissociation constant (Kd) of 0.015 µM. Also, binding at c-Cbl (residues 47-435) was put at a Kd of 0.11 µM.

In the case of `CO[C@H]1C[C@](c2cccc(N3Cc4c(cccc4C(F)(F)F)C3=O)c2)(c2nncn2C)C1` [Compound 196, 2-(3-((1r,3r)-3-methoxy-1-(4-methyl-4H-1,2,4-triazol-3-yl)cyclobutyl)phenyl)-4-(trifluoromethyl)isoindolin-1-one], the IC50 turned out to be 1.5 µM at Cbl-b and 8.3 µM at c-Cbl. Besides, the “fold-selectivity (Cbl-b over C-cbl)” value at Cbl-b is 5.6x. This compound also returned a Fold of selectivity in assay [1] of 5.5×. Moreover, the dissociation constant Kd in assay [1] amounted to 1.8 µM; on c-Cbl (residues 47-435) it was 9.9 µM.

Turning to `Cn1cnnc1C1(c2cccc(N3Cc4c(cc(CNC5(C)CCC5)cc4C(F)F)C3=O)c2)CC2(COC2)C1` [Compound 197, 4-(difluoromethyl)-2-(3-(6-(4-methyl-4H-1,2,4-triazol-3-yl)-2-oxaspiro[3.3]heptan-6-yl)phenyl)-6-(((1-methylcyclobutyl)amino)methyl)isoindolin-1-one], the IC50 came to 0.037 µM against Cbl-b and 0.16 µM at c-Cbl. Besides, the “fold-selectivity (Cbl-b over C-cbl)” value on Cbl-b was found to be 4.5x. In assay [1], the Fold of selectivity came out at 9.2×. The Kd in assay [1] stood at 0.012 µM; at c-Cbl (residues 47-435), 0.11 µM.
